Patent US20160193216A1 (Nimbus Iris, Inc., priority 2012, published 2016)
Like-named read-outs stand apart in the source and are kept apart here.

Columns and labels:
[1] = test system: THP-1 cells; assay: LPS induced cytokine (TNFα and IL8) production assay in THP-1 cells; assay type: cell-based; conditions: Homo sapiens, 300 ng/mL LPS
How it was run: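 THP-1 cells (100,000/well) pre-incubated 1 hour with compound in 0.3% DMSO, then stimulated with 300 ng/mL LPS. TNFα and IL8 in supernatant measured by HTRF at 5 hours; IL8 and viability also at 16 hours.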

[2] = test system: MSU-induced gout; assay: In vivo murine air pouch model of human gout (MSU); conditions: Balb/c mice, oral twice a day for six days, 10, 30 or 100 mg/kg
Method: In Vivo Murine Air Pouch Model of Human Gout Compounds of the present invention were also evaluated in mice in an in vivo efficacy model for inhibiting monosodium urate (MSU) induced model of gout. An exemplary protocol for this assay follows. A sterile air pouch was created in Balb/c mice. I-67 was administered orally to the mice twice a day for six days at doses of either 10, 30 or 100 mg/kg. Following the last dose the mice were anesthetized and the air pouch was injected with a suspension of monosodium urate (MSU) to induce the inflammatory response. Four hours after the injection the air pouch exudate was collected and the number of white blood cells was measured.

[3] = test system: Whole Blood; assay: In vitro LPS/R848-induced cytokine production assay in whole blood; assay type: cell-based, human; conditions: Homo sapiens
Method: In Vitro LPS/R848/CpG-Induced Cytokine Production Assays in hPBMC or Whole Blood
Compounds of the present invention were also studied in in vitro LPS/R848/CpG-induced cytokine production assays. Exemplary protocols follow.
[…] Cells were seeded in a 96-well plate with 130 ul/well of the cell suspension according to the plate map. 9 ul of 30 mM compound solution was added into the wells in the assigned rows, then serial solutions with 4× dilutions were made. That is, add 9 uL of 100% DMSO into each of the rest wells and take 3 uL of compound solution from the one-step higher concentration solution and mix well with the DMSO. For the second compound master plate, 196 uL of the growth medium (no serum media) were added into each of the wells and 4 uL of the compound solution from the first compound master plate was added and mixed with the media. Cells were treated for 0.5 h by adding 20 uL of the compound and the control solutions prepared in the second master plate to each well according to the plate map. […] Plates were sealed with sealing films and the plates were centrifuged at 3000 rpm at 4 degrees C. for 5 min. The supernatants were transferred, and 100 ul of working Capture antibody solution was added to each well. The plates were sealed and incubated overnight at RT. IL-6, IFN-α or TNF-α detection antibody labeled with biotin: Added 100 uL of the Detection Antibody solution to each well. Covered the plate and incubated for 2 h at RT. Added 100 uL of Streptavidin-HRP solution to each well. Covered the plate and incubate for 20 min at RT in dark. Added 100 uL of Substrate Solution to each well. Incubated for 20 min at RT in dark. Added 50 uL of Stop Solution to each well. Gently tapped the plate to ensure thorough mixing. Determined the optical density of each well immediately, using a microplate reader set to 450 nm and also read at 540 nm or 570 nm for correction if wavelength correction is not available.

IC50 ([1]; read-out: IL8 production IC50): ≤ 500 nM
IC50 ([1]; read-out: TNFα production IC50): 500 to 1000 nM
IC50 ([3]; LPS 0.1 ug/mL, read-out: IL-6 production IC50): ≤ 250 nM
IC50 ([3]; R848 1 uM, read-out: IFN-α production IC50): ≥ 1000 nM
IC50 ([3]; R848 1 uM, read-out: TNF-α production IC50): 500 to 1000 nM
Compound: NC(=O)C[C@H]1CCc2sc3ncnc(O[C@H]4CC[C@H](N5CCOCC5)CC4)c3c21 [Compound I-67, 2-((R)-4-(((1r,4R)-4-morpholinocyclohexyl)oxy)-6,7-dihydro-5H-cyclopenta[4,5]thieno[2,3-d]pyrimidin-5-yl)acetamide]
Efficacy in MSU-induced gout (white blood cell counts in air pouch exudate) [2]: efficacious
